Test results taken from patent US6841682B2, “Heterocycles useful in the treatment of benign prostatic hyperplasia” (Janseen Pharmaceutica N.V., priority 1997, dated 2005).
Like-named read-outs stand apart in the source and are kept apart here.

Experiments:
[1] = molecular target: T1, α1a-AR (Homo sapiens, UniProt P35348); assay: radioligand ([125I]-HEAT) receptor binding assay, COS cell membranes, α1a-AR
T1 construct: expressed in transfected cells; host or cells: COS cells (pcDNA3 vector, DEAE-dextran transient transfection); membrane preparation
T1 sequence (P35348 1-466): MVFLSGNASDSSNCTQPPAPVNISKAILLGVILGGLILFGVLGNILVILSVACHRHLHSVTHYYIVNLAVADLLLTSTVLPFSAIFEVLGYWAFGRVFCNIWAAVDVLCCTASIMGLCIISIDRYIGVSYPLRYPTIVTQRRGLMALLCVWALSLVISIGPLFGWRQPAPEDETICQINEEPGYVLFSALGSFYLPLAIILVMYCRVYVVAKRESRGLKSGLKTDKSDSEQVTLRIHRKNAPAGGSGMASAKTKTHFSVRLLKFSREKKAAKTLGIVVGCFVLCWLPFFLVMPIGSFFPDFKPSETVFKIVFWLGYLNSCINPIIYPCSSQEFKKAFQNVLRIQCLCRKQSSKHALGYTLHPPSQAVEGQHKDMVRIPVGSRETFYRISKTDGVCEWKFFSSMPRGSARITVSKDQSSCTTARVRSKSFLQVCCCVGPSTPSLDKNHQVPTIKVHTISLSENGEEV
Excerpt: (§1) The first assay tested the ability of compounds of Formula I to bind to membrane bound receptors α1a-AR, α1b-AR and α1d-AR.
(§2) The DNA sequences of the three cloned human α1-AR subtypes have been published. […] We used published DNA sequence information to design-primers for use in RT-PCR amplification of each subtype to obtain cloned cDNAs. Human poly A+ RNA was obtained from commercially available sources and included hippocampus and prostate samples, sources which have been cited in the literature. For the primary screen a radio ligand binding assay was used which employed membrane preparations from cells expressing the individual cloned receptor cDNAs.
(§3) Each α1 receptor subtype was cloned from poly A+ RNA by the standard method of reverse transcription-polymerase chain reaction (RT-PCR). The following sources of polyA+ RNA were used for the cloning of the al receptor subtypes: α1a-AR, human hippocampus and prostate, α1b-AR, human hippocampus, α1d-AR, human hippocampus. The resulting cDNAs were cloned into the pcDNA3 mammalian expression vector (Invitrogen Corp., San Diego Calif.). Each DNA was sequenced for verification and to detect any possible mutations introduced during the amplification process. Any deviation in sequence from the published consensus for each receptor subtype was corrected by site-directed mutagenesis.
(§4) The three α1-AR subtypes (a, b, d) were transfected into COS cells using a standard DEAE-dextran procedure with a chloroquine shock. In this procedure, each tissue culture dish (100 mm) was inoculated with 3.5×10^6 cells and transfected with 10 μg of DNA. Approximately 72 hours post-transfection, the cells were harvested and COS membranes were prepared. Transfected COS cells from 25 plates (100 mm) were scraped and suspended in 15 mL of TE buffer (50 mM Tris-HCl, 5 mM EDTA, pH7.4). The suspension was disrupted with a homogenizer. It was then centrifuged at 1000×g for 10 minutes at 4° C. The supernatant was centrifuged at 34,500×g for 20 minutes at 4° C. The pellet was resuspended in 5 mL TNE buffer (50 mM Tris-HCl, 5 mM EDTA, 150 mM NaCl, pH7.4). The resulting membrane preparation was aliquoted and stored at −70° C. The protein concentration was determined following membrane solubilization with TritonX-100.
The ability of each compound to bind to each of the α1-AR subtypes was assessed in a receptor binding assay. […] The plate was incubated for 1 hour at room temperature and the reaction mixtures were filtered through a Packard GF/C Unifilter filter plate. The filter plate was dried for 1 hour in a vacuum oven. Scintillation fluid ([…]) was added to each well, and the filter plate was counted in a Packard Topcount scintillation counter. Data was analyzed using GraphPad Prism software.

[2] = molecular target: T2, α1b-AR (Homo sapiens, UniProt P35368); assay: radioligand ([125I]-HEAT) receptor binding assay, COS cell membranes, α1b-AR
T2 construct: expressed in transfected cells; host or cells: COS cells (pcDNA3 vector, DEAE-dextran transient transfection); membrane preparation
T2 sequence (P35368 1-520): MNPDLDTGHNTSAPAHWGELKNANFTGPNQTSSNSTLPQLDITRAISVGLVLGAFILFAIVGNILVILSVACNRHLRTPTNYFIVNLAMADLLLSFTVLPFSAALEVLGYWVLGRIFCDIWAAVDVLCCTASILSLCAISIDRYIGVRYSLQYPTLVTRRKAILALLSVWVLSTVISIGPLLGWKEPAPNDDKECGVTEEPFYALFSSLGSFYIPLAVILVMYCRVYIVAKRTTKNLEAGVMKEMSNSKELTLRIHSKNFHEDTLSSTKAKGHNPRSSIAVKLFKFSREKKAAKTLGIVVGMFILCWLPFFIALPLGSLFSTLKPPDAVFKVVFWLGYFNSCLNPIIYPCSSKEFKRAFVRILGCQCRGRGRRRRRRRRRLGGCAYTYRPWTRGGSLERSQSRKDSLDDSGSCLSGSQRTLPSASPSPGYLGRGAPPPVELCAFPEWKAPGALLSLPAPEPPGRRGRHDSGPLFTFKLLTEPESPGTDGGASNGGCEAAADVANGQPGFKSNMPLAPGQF
Excerpt: as §1
as §2, with “receptor cDNAs. Radiolabeled ligands with binding activity on all three subtypes (non-selective) are commercially available ([125I]-HEAT, [3H]-prazosin).” for “receptor cDNAs.”
as §3, §4
(§5) The ability of each compound to bind to each of the α1-AR subtypes was assessed in a receptor binding assay. [125I]-HEAT, a non-selective α1-AR ligand, was used as the radiolabeled ligand. Each well of a 96-well plate received: 140 μL TNE, 25 μL [125I]-HEAT diluted in TNE (50,000 cpm; final concentration 50 pM), 10 μL test compound diluted in DMSO (final concentration 1 pM-10 μM), […] COS cell membrane preparation expressing one of the three α1-AR subtypes (0.05-0.2 mg membrane protein). The plate was incubated for 1 hour at room temperature and the reaction mixtures were filtered through a Packard GF/C Unifilter filter plate. The filter plate was dried for 1 hour in a vacuum oven. Scintillation fluid ([…]) was added to each well, and the filter plate was counted in a Packard Topcount scintillation counter. Data was analyzed using GraphPad Prism software.
(§6) Tables A-J list the IC50 values expressed in nanomolar concentration for select compounds of the invention in all receptor subtypes.

[3] = molecular target: T3, α1d-AR (Homo sapiens, UniProt P25100); assay: radioligand ([125I]-HEAT) receptor binding assay, COS cell membranes, α1d-AR; conditions: Tables A-J, [125I]-HEAT 50 pM
T3 construct: expressed in transfected cells; host or cells: COS cells (pcDNA3 vector, DEAE-dextran transient transfection); membrane preparation
T3 sequence (P25100 1-572): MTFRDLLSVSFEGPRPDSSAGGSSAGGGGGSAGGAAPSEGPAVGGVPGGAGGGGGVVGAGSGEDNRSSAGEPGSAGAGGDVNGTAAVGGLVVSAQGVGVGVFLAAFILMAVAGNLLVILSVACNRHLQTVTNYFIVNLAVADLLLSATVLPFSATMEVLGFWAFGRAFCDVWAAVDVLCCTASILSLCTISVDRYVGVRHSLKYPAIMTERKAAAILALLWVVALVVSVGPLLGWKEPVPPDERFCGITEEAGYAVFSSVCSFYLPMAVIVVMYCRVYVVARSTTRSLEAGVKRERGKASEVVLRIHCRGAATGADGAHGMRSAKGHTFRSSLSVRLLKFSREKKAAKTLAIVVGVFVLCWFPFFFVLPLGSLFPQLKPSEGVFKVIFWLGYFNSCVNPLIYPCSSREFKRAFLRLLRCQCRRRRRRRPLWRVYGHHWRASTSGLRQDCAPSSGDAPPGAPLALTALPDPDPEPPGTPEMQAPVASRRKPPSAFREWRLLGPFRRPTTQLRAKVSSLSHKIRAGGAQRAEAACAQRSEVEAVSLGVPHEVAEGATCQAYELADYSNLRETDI
Excerpt: as §1
as §2, with “receptor cDNAs. Radiolabeled ligands with binding activity on all three subtypes (non-selective) are commercially available ([125I]-HEAT, [3H]-prazosin).” for “receptor cDNAs.”
as §3, §4, §5, §6

[4] = molecular target: T4, α1c (Homo sapiens, UniProt P25100); assay: α1c screen (as named in the preparative examples); format: binding; conditions: stated in the preparative example
T4 construct: expressed in transfected cells
T4 sequence (P25100 1-572): T3 sequence (P25100 1-572)
Excerpt: as §1
as §2, with “receptor cDNAs. Radiolabeled ligands with binding activity on all three subtypes (non-selective) are commercially available ([125I]-HEAT, [3H]-prazosin).” for “receptor cDNAs.”
as §3, §4
The ability of each compound to bind to each of the α1-AR subtypes was assessed in a receptor binding assay. [125I]-HEAT, a non-selective α1-AR ligand, was used as the radiolabeled ligand. […] Scintillation fluid (25 mL) was added to each well, and the filter plate was counted in a Packard Topcount scintillation counter. Data was analyzed using GraphPad Prism software.

[5] = Tables A-J, [125I]-HEAT 50 pM, COS membranes, read-out: α1a IC50
[6] = Tables A-J, [125I]-HEAT 50 pM, COS membranes, read-out: α1b IC50
[7] = stated in the preparative example, read-out: activity in the α1a screen
[8] = stated in the preparative example, read-out: activity in the α1b screen

| IC50 [1, 5] [nM] | IC50 [2, 6] [nM] | IC50 [3] [nM] | IC50 [1, 7] [nM] | IC50 [4] [nM] | IC50 [2, 8] [nM] | SMILES |
| --- | --- | --- | --- | --- | --- | --- |
| 1 | 768 | 185 |  |  |  | CC(C)Oc1ccccc1N1CCN(Cc2cc(CN3CCCCC3=O)cs2)CC1 [compound 55] |
| 98 | 96 | 197 |  |  |  | CC(C)Oc1ccccc1N1CCN(Cc2cccc(CN3C(=O)CCCC3=O)n2)CC1 [compound 45] |
| 838 | > 5140 | 261 |  |  |  | COc1ccccc1N1CCN(Cc2ccc(CN3CCCCC3CO)s2)CC1 (centres unmarked) [compound 50] |
| 29 | > 10000 | 26 |  |  |  | COc1ccccc1N1CCN(Cc2ccc(CN3CCCCC3=O)s2)CC1 [compound 48] |
| 69 | 1750 | 174 |  |  |  | CC(C)Oc1ccccc1N1CCN(Cc2cccc(CN3C(=O)CCC3=O)n2)CC1 [compound 46] |
| 1730 | 3020 | 500 |  |  |  | COc1ccccc1N1CCN(Cc2cccc(CN3CCCCC3=O)n2)CC1 [compound 54] |
| 3.7 | 1230 | 95 |  |  |  | CC(C)Oc1ccccc1N1CCN(Cc2cc(CN3CCCCCC3=O)cs2)CC1 [compound 56] |
| 147 | 3320 | 291 |  |  |  | CC(C)Oc1ccccc1N1CCN(Cc2cccc(CN3C(=O)CCCC3c3ccccc3)n2)CC1 (centres unmarked) [compound 47] |
| 37 | > 10000 | 24 |  |  |  | COc1ccccc1N1CCN(Cc2ccc(CN3CCCCCC3=O)s2)CC1 [compound 49] |

More lines, now with the values behind:

| SMILES | IC50 [1, 5] [nM] | IC50 [2, 6] [nM] | IC50 [3] [nM] | IC50 [1, 7] [nM] | IC50 [4] [nM] | IC50 [2, 8] [nM] |
| --- | --- | --- | --- | --- | --- | --- |
| CC(C)Oc1ccccc1N1CCN(Cc2cc(CN3CCCCC3=O)nc(N)n2)CC1 [Compound 4] | 79 | > 10000 | > 10000 |  |  |  |
| CC(C)Oc1ccccc1N1CCN(Cc2ncc(CN3CCCC3=O)s2)CC1 [Compound 17] | 2.5 | 3470 | 79 |  |  |  |
| CC(C)Oc1ccccc1N1CCN(CC(O)CC(O)CN2CCCCC2=O)CC1 (centres unmarked) [compound 37] |  |  |  | 53 | 224 | > 10000 |
| COc1ccccc1N1CCN(Cc2cccc(CN3CCCCCCC3=O)n2)CC1 [compound 44] | 2030 | 3940 | 577 |  |  |  |
| CC(C)Oc1ccccc1N1CCN(Cc2nc(CN3CCCCC3=O)co2)CC1 [Compound 12] | 4640 | > 10000 | > 10000 |  |  |  |
| O=C1CCCCCN1Cc1cc(CN2CCN(c3ccccc3Oc3ccccc3)CC2)on1 [compound 39] | 172 | > 10000 | 570 |  |  |  |
| COc1ccccc1N1CCN(Cc2cccc(CN3CCCC3=O)n2)CC1 [compound 43] | 7720 | 2640 | 1560 |  |  |  |
| CC(C)Oc1ccccc1N1CCN(Cc2cc(CN3CCCCC3=O)on2)CC1 [Compound 8] | 3.8 |  | 272 |  |  |  |
| CC(C)Oc1ccccc1N1CCN(C/C=C/C(=O)CN2CCCCC2=O)CC1 [compound 36] | 6.3 | > 10000 | 215 | 18 | 602 | 5320 |
| CC(C)Oc1ccccc1N1CCN(Cc2cc(CN3CCCC3=O)no2)CC1 [Compound 28] | 2.2 | > 5980 | 131 |  |  |  |
| CC(C)Oc1ccccc1N1CCN(Cc2cc(CN3CCCC3=O)cs2)CC1 [Compound 32] | 0.83 | 620 | 24 |  |  |  |
| CC(C)Oc1ccccc1N1CCN(CC2=NOC(CN3CCCCC3=O)C2)CC1 (centres unmarked) [Compound 9] | 89 | > 10000 | 1520 |  |  |  |
| O=C1CCCN1Cc1cc(CN2CCN(c3ccccc3Oc3ccccc3)CC2)on1 [compound 38] | 30 | 4410 | 341 |  |  |  |
| CC(C)Oc1ccccc1N1CCN(CC(=O)CC(=O)CN2CCCCC2=O)CC1 [compound 2] |  |  |  | 417 | 6040 | > 10000 |
| COc1ccccc1N1CCN(Cc2cccc(CN3CCC3=O)n2)CC1 [compound 41] | 7630 | 3170 | 1680 |  |  |  |
| COc1ccccc1N1CCN(Cc2ccc(CN3CCCC3=O)s2)CC1 [Compound 23] | 80 | > 10000 | 46 |  |  |  |
| CC(C)Oc1ccccc1N1CCN(CC(O)CC(=O)CN2CCCCC2=O)CC1 (centres unmarked) [compound 35] |  |  |  | 28 | 253 | > 10000 |
| COc1ccccc1N1CCN(Cc2cccc(CN3CCCCCC3=O)n2)CC1 [compound 42] | 8590 | 1420 | 526 |  |  |  |
